# Experimental data reported in US20130085064A1, “PESTICIDAL MIXTURES CONTAINING ISOXAZOLINE DERIVATIVES AND INSECTICIDE OR NEMATOICIDAL BIOLOGICAL AGENT” (priority 2010, published 2013).
# Several values for one entry are separate records, joined by “and”; a condition that tells them apart may be missing. Identical values can stand only once. Like-named read-outs stand apart in the source and are kept apart here.
# Columns and labels:
# [1] = tested on: Heliothis virescens (tobacco budworm); assay: Heliothis virescens eggs in 24-well microtiter plate on artificial diet, larval mortality; assay type: in vivo; details: for pest or weed control at 0.375 ppm / pest or weed control at 0.75 ppm / pest or weed control at 1.5 ppm / pest or weed control at 3 ppm / pest or weed control at 6 ppm / pest or weed control at 12 ppm / pest or weed control at 6.25 ppm / pest or weed control at 12.5 ppm / pest or weed control at 25 ppm / pest or weed control at 50 ppm / pest or weed control at 100 ppm / pest or weed control at 200 ppm: Heliothis virescens, 96 h, read-out: AVERAGE DEAD IN %
# Text: (§1) The action to be expected E for a given active ingredient combination obeys the so-called COLBY formula and can be calculated as follows (COLBY, S.R. “Calculating synergistic and antagonistic responses of herbicide combination”. Weeds, Vol. 15, pages 20-22; 1967):
# (§2) ppm=milligrams of active ingredient (=a.i.) per liter of spray mixture X=% action by active ingredient A) using p ppm of active ingredient Y=% action by active ingredient B) using q ppm of active ingredient.
# (§3) According to COLBY, the expected (additive) action of active ingredients A)+B) using p+q ppm of active ingredient is
# (§4) If the action actually observed (O) is greater than the expected action (E), then the action of the combination is super-additive, i.e. there is a synergistic effect. In mathematical terms the synergism factor SF corresponds to O/E. In the agricultural practice an SF of ≧1.2 indicates significant improvement over the purely complementary addition of activities (expected activity), while an SF of ≦0.9 in the practical application routine signals a loss of activity compared to the expected activity.
# Heliothis Virescens (Tobacco Budworm)
# Eggs (0-24 h old) are placed in 24-well microtiter plate on artificial diet and treated with test solutions (DMSO) by pipetting. After an incubation period of 4 days, samples are checked for larval mortality.
# [2] = tested on: Tetranychus urticae (two-spotted spider mite); assay: Tetranychus urticae bean leaf discs in 24-well microtiter plates, mixed population mortality; assay type: in vivo; details: 8 days
# Text: as §1, §2, §3, §4
# Tetranychus Urticae (Two-Spotted Spider Mite)
# Bean leaf discs on agar in 24-well microtiter plates are sprayed with test solutions (DMSO). After drying, the leaf discs are infested with mite populations of mixed ages. 8 days later, discs are checked for mixed population mortality.
# [3] = single compound, 12.5 ppm AI, larval mortality, 4 days
# [4] = single compound, 25 ppm AI, larval mortality, 4 days
# [5] = single compound, 50 ppm AI, larval mortality, 4 days
# [6] = single compound, 100 ppm AI, larval mortality, 4 days
# [7] = single compound, 200 ppm AI, larval mortality, 4 days
molecule,measurement,setting,value
Cc1cc(C2=NOC(c3cc(Cl)cc(Cl)c3)(C(F)(F)F)C2)ccc1C(=O)NC1CSC1 (racemic) [SYN 545706],AVERAGE DEAD IN %,"[1]; single compound, 0.1 ppm AI, larval mortality, 4 days",0%
same,AVERAGE DEAD IN %,"[1]; single compound, 0.2 ppm AI, larval mortality, 4 days",35% and 25%
same,AVERAGE DEAD IN %,"[1]; single compound, 0.4 ppm AI, larval mortality, 4 days",90% and 78%
same,AVERAGE DEAD IN %,"[1]; single compound, 0.8 ppm AI, larval mortality, 4 days",95% and 88%
same,AVERAGE DEAD IN %,"[1]; single compound, 1.6 ppm AI, larval mortality, 4 days",90% and 91%
same,AVERAGE DEAD IN %,"[1]; single compound, 3.2 ppm AI, larval mortality, 4 days",98% and 96%
CN/C(=N\[N+](=O)[O-])NCc1cnc(Cl)s1 [Clothianidin],pest or weed control at 0.375 ppm,[1]; Clothianidin alone 0.375 ppm AI,0%
same,pest or weed control at 0.75 ppm,[1]; Clothianidin alone 0.75 ppm AI,0%
same,pest or weed control at 1.5 ppm,[1]; Clothianidin alone 1.5 ppm AI,0%
same,pest or weed control at 3 ppm,[1]; Clothianidin alone 3 ppm AI,3%
same,pest or weed control at 6 ppm,[1]; Clothianidin alone 6 ppm AI,38%
same,pest or weed control at 12 ppm,[1]; Clothianidin alone 12 ppm AI,48%
same,pest or weed control at 0.375 ppm,[1]; single compound at 0.375 ppm AI,0%
same,pest or weed control at 0.75 ppm,[1]; single compound at 0.75 ppm AI,0%
same,pest or weed control at 1.5 ppm,[1]; single compound at 1.5 ppm AI,0%
same,pest or weed control at 3 ppm,[1]; single compound at 3 ppm AI,3%
same,pest or weed control at 6 ppm,[1]; single compound at 6 ppm AI,38%
same,pest or weed control at 12 ppm,[1]; single compound at 12 ppm AI,48%
same,pest or weed control at 0.375 ppm,"[1]; single compound, 0.375 ppm AI, larval mortality, 4 days",0%
same,pest or weed control at 0.75 ppm,"[1]; single compound, 0.75 ppm AI, larval mortality, 4 days",0%
same,pest or weed control at 1.5 ppm,"[1]; single compound, 1.5 ppm AI, larval mortality, 4 days",0%
same,pest or weed control at 3 ppm,"[1]; single compound, 3 ppm AI, larval mortality, 4 days",0%
same,pest or weed control at 6 ppm,"[1]; single compound, 6 ppm AI, larval mortality, 4 days",45%
same,pest or weed control at 12 ppm,"[1]; single compound, 12 ppm AI, larval mortality, 4 days",80%
N#CCNC(=O)c1cnccc1C(F)(F)F [Flonicamid],AVERAGE DEAD IN %,[1]; Flonicamid alone 12.5 ppm AI,0%
same,AVERAGE DEAD IN %,[1]; Flonicamid alone 25 ppm AI,0%
same,AVERAGE DEAD IN %,[1]; Flonicamid alone 50 ppm AI,0%
same,AVERAGE DEAD IN %,[1]; Flonicamid alone 100 ppm AI,0%
same,AVERAGE DEAD IN %,[1]; Flonicamid alone 200 ppm AI,0%
same,AVERAGE DEAD IN %,[1]; Flonicamid alone 400 ppm AI,0%
same,AVERAGE DEAD IN %,[1]; single compound at 12.5 ppm AI,0%
same,AVERAGE DEAD IN %,[1]; single compound at 25 ppm AI,0%
same,AVERAGE DEAD IN %,[1]; single compound at 50 ppm AI,0%
same,AVERAGE DEAD IN %,[1]; single compound at 100 ppm AI,0%
same,AVERAGE DEAD IN %,[1]; single compound at 200 ppm AI,0%
same,AVERAGE DEAD IN %,[1]; single compound at 400 ppm AI,0%
same,AVERAGE DEAD IN %,[1]; [3],0%
same,AVERAGE DEAD IN %,[1]; [4],0%
same,AVERAGE DEAD IN %,[1]; [5],15%
same,AVERAGE DEAD IN %,[1]; [6],0%
same,AVERAGE DEAD IN %,[1]; [7],0%
same,AVERAGE DEAD IN %,"[1]; single compound, 400 ppm AI, larval mortality, 4 days",0%
O=[N+]([O-])NC1=NCCN1Cc1ccc(Cl)nc1 [Imidacloprid],pest or weed control at 6.25 ppm,[1]; Imidacloprid alone 6.25 ppm AI,0%
same,pest or weed control at 12.5 ppm,[1]; Imidacloprid alone 12.5 ppm AI,0%
same,pest or weed control at 25 ppm,[1]; Imidacloprid alone 25 ppm AI,20%
same,pest or weed control at 50 ppm,[1]; Imidacloprid alone 50 ppm AI,50%
same,pest or weed control at 100 ppm,[1]; Imidacloprid alone 100 ppm AI,95%
same,pest or weed control at 200 ppm,[1]; Imidacloprid alone 200 ppm AI,100%
same,pest or weed control at 6.25 ppm,[1]; single compound at 6.25 ppm AI,0%
same,pest or weed control at 12.5 ppm,[1]; single compound at 12.5 ppm AI,0%
same,pest or weed control at 25 ppm,[1]; single compound at 25 ppm AI,20%
same,pest or weed control at 50 ppm,[1]; single compound at 50 ppm AI,50%
same,pest or weed control at 100 ppm,[1]; single compound at 100 ppm AI,95%
same,pest or weed control at 200 ppm,[1]; single compound at 200 ppm AI,100%
same,pest or weed control at 6.25 ppm,"[1]; single compound, 6.25 ppm AI, larval mortality, 4 days",0%
same,pest or weed control at 12.5 ppm,[1]; [3],0%
same,pest or weed control at 25 ppm,[1]; [4],75%
same,pest or weed control at 50 ppm,[1]; [5],85%
same,pest or weed control at 100 ppm,[1]; [6],88%
same,pest or weed control at 200 ppm,[1]; [7],100%
same,AVERAGE DEAD IN %,[2]; 25 ppm alone,0%
same,AVERAGE DEAD IN %,[2]; 50 ppm alone,0%
same,AVERAGE DEAD IN %,[2]; 100 ppm alone,25%
same,AVERAGE DEAD IN %,[2]; 200 ppm alone,0%
same,AVERAGE DEAD IN %,[2]; 400 ppm alone,13%
same,AVERAGE DEAD IN %,[2]; 800 ppm alone,25%
same,AVERAGE DEAD IN %,"[2]; Imidacloprid alone, 25 ppm, Table 123",0%
same,AVERAGE DEAD IN %,"[2]; Imidacloprid alone, 50 ppm, Table 123",0%
same,AVERAGE DEAD IN %,"[2]; Imidacloprid alone, 100 ppm, Table 123",25%
same,AVERAGE DEAD IN %,"[2]; Imidacloprid alone, 200 ppm, Table 123",0%
same,AVERAGE DEAD IN %,"[2]; Imidacloprid alone, 400 ppm, Table 123",13%
same,AVERAGE DEAD IN %,"[2]; Imidacloprid alone, 800 ppm, Table 123",25%
Emamectin,AVERAGE DEAD IN %,[2]; 0.1 ppm alone,70%
same,AVERAGE DEAD IN %,[2]; 0.2 ppm alone,75%
same,AVERAGE DEAD IN %,[2]; 0.4 ppm alone,93%
same,AVERAGE DEAD IN %,[2]; 0.8 ppm alone,95%
same,AVERAGE DEAD IN %,[2]; 1.6 ppm alone,95%
same,AVERAGE DEAD IN %,[2]; 3.2 ppm alone,100%
same,AVERAGE DEAD IN %,"[2]; Emamectin alone, 0.1 ppm, Table 121",70%
same,AVERAGE DEAD IN %,"[2]; Emamectin alone, 0.2 ppm, Table 121",75%
same,AVERAGE DEAD IN %,"[2]; Emamectin alone, 0.4 ppm, Table 121",93%
same,AVERAGE DEAD IN %,"[2]; Emamectin alone, 0.8 ppm, Table 121",95%
same,AVERAGE DEAD IN %,"[2]; Emamectin alone, 1.6 ppm, Table 121",95%
same,AVERAGE DEAD IN %,"[2]; Emamectin alone, 3.2 ppm, Table 121",100%
